Target: T1, ERα D538G (Homo sapiens, UniProt P03372, D538G)
T1 sequence (P03372 1-595 D538G): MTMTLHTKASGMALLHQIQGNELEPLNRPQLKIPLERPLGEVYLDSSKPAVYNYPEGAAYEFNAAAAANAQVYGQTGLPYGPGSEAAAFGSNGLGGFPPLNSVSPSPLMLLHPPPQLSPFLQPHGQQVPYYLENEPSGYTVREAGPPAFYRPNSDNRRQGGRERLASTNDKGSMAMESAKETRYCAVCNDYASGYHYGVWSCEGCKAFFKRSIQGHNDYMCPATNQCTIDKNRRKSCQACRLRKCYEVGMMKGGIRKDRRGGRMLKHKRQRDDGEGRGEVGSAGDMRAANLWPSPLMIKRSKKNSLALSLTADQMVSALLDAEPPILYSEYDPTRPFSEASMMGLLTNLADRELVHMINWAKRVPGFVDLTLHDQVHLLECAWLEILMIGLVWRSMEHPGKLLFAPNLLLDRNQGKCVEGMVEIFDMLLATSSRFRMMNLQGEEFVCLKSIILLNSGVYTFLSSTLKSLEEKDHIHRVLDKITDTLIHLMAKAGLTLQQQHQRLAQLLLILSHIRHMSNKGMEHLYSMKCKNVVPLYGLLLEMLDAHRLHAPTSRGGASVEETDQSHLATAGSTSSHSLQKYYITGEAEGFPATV
Experiment: Immunoblot analysis of ERα degradation in T-47D^D538G cells
Assay type: cell-based
Settings: 5 μmol/L over 12 h

CC(C)=CC(=O)Nc1ccc(C2=C(c3ccc(O)cc3)C3OC2CC3S(=O)(=O)N(CC(F)(F)F)c2ccc(O)cc2)cc1 (stereo not shown) [Compound 29c, N-(4-(3-(4-Hydroxyphenyl)-5-(N-(4-hydroxyphenyl)-N-(2,2,2-trifluoroethyl)sulfamoyl)-7-oxabicyclo[2.2.1]hept-2-en-2-yl)phenyl)-3-methylbut-2-enamide]
ERα degradation time course, T-47D^D538G: completely degraded

— article PMC10692362 (Acta Pharmaceutica Sinica. B, 2023)
